Test system: Male DBA/1 mice (CIA model)
Experiment: CIA in mice, histology of heterotopic bone formation
Assay type: in vivo
Conditions: 30 mg/kg (lowest tested dose) once daily for 10 days, FIG. 9
Description: CIA in mice is another very popular translational model to mimic human arthritis. […] Male DBA/1 mice were immunized by intradermal injection at the base of the tail with an emulsion of 200 μg of bCII in CFA containing 3 mg/ml Mycobacterium tuberculosis. Non-immunized mice served as the negative control of disease. Animals were monitored by visual inspection for appearance of peripheral edema. […] Upon onset, animals were recruited and randomized. Recruitment was given a cut-off at day 40. Upon recruitment, arthritis clinical score was assigned, and edema was measured via caliper. Mice were randomized into the following groups: vehicle, 30 mg/kg the form A of the sodium salt of (R)-4-(1-(6-(4-(trifluoromethyl)benzyl)-6-azaspiro[2.5]octane-5-carboxamido)cyclopropyl)benzoic acid, 60 mg/kg the form A of the sodium salt of (R)-4-(1-(6-(4-(trifluoromethyl)benzyl)-6-azaspiro[2.5]octane-5-carboxamido)cyclopropyl)benzoic acid and 60 mg/kg naproxen. Animals received the test drugs once daily for 10 days. Histology was performed as described for rats.

## O=C([O-])c1ccc(C2(NC(=O)[C@H]3CC4(CCN3Cc3ccc(C(F)(F)F)cc3)CC4)CC2)cc1.[Na+] [Form A, sodium (R)-4-(1-(6-(4-(trifluoromethyl)benzyl)-6-azaspiro[2.5]octane-5-carboxamido)cyclopropyl)benzoate]
  pathological bone formation (histology): completely abrogated in almost all animals

From US12433875B2, “(R)-4-(1-(6-(4-(trifluoromethyl)benzyl)-6-azaspiro[2.5]octane-5-carboxamido)-cyclopropyl) benzoic acid or its salt also in polymorphic form a for use in the prevention of heterotopic ossification” (ROTTAPHARM BIOTECH S.R.L., priority 2019, dated 2025)
